Marks after values point to notes of the source that are not given here.
Assay: Safety and tolerability
Assay type: in vivo, human
[1] = 20 mg bid 11 d solution, fasted, nonelderly
[2] = 50 mg bid 11 d solution, fasted, nonelderly
[3] = 100 mg bid 11 d solution, fed, nonelderly
[4] = 200 mg bid 7 d capsule, fasted, elderly
[5] = 200 mg bid 11 d solution, fasted, nonelderly
[6] = 300 mg bid 7 d capsule, fasted, elderly
[7] = 400 mg bid 11 d capsule, fasted, nonelderly
[8] = 500 mg bid 11 d capsule, fed, nonelderly
[9] = 500 mg bid 11 d tablet, fasted, elderly
[10] = 800 mg bid 11 d tablet, fasted, elderly

CCCOc1ccc([C@H]2CNC(=O)N2c2ccc3[nH]cnc3c2)cc1 [PQ912]
16: Number of AEs [1] | Number of AEs [3] | subjects reporting drug-related TEAEs (after single doses, of 104 subjects (PQ912 or placebo))
62.5%: Subjects with AEs, percentage of total subjects [7]
22: Number of AEs [2]
9: Number of AEs [7] | Subjects with AEs, number [9]
safe and well tolerated: overall safety and tolerability (single doses up to 3600 mg, bid doses up to 800 mg)
2 [2]: Abnormal sensation in eye, number of TEAEs [8] | Abnormal sensation in eye, number of subjects [8] | Dizziness, number of TEAEs [8] | Dizziness, number of subjects [8] | Pain in extremity, number of TEAEs [8] | Pain in extremity, number of subjects [8] | Constipation, number of TEAEs [9] | Constipation, number of subjects [9] | Constipation, number of TEAEs [10] | Constipation, number of subjects [10] | Headache, number of TEAEs [10] | Headache, number of subjects [10] | Nausea, number of TEAEs [10] | Nausea, number of subjects [10] | Pollakiuria, number of TEAEs [10] | Pollakiuria, number of subjects [10] | Back pain, number of TEAEs (single 400 mg solution, fasted) | Back pain, number of subjects (single 400 mg solution, fasted) | Nausea, number of TEAEs (single 1800 mg tablet, fasted) | Nausea, number of subjects (single 1800 mg tablet, fasted)
7: Headache, number of TEAEs [1] | Subjects with AEs, number [1] | Subjects with AEs, number [2] | Number of AEs (single 100 mg solution, fasted) | Number of AEs (single 400 mg solution, fasted)
50.0%: Subjects with AEs, percentage of total subjects [4]
6: Injection site pain, number of TEAEs [2] | Subjects with AEs, number [5] | Subjects with AEs, number [6] | Subjects with AEs, number [10]
6 [6]: Presyncope, number of TEAEs [3] | Presyncope, number of subjects [3]
3 [3]: Injection site pain, number of TEAEs [3] | Injection site pain, number of subjects [3] | Headache, number of TEAEs [8] | Headache, number of subjects [8] | Flatulence, number of TEAEs [10] | Flatulence, number of subjects [10] | Back pain, number of TEAEs (single 100 mg solution, fasted) | Back pain, number of subjects (single 100 mg solution, fasted)
5: Injection site pain, number of subjects [2] | Subjects with AEs, number [7] | Back pain, number of TEAEs [8] | Subjects with AEs, number (single 50 mg solution, fasted)
34: Number of AEs [10]
100.0%: Subjects with AEs, percentage of total subjects [3] | Subjects with AEs, percentage of total subjects [8]
75.0%: Subjects with AEs, percentage of total subjects [5] | Subjects with AEs, percentage of total subjects [6] | Subjects with AEs, percentage of total subjects [9]
One subject: subjects withdrawn because of a TEAE (urticaria papular) (500-mg bid, 11 days, capsule, fed, about 3.5 hours after the 18th dose)
13: Number of AEs [6]
25: drug-related TEAEs, events (after single doses, 104 subjects (PQ912 or placebo))
1 [1]: Abdominal pain, number of TEAEs [1] | Abdominal pain, number of subjects [1] | Neck pain, number of TEAEs [1] | Neck pain, number of subjects [1] | Abdominal pain, number of TEAEs [2] | Abdominal pain, number of subjects [2] | Chest pain, number of TEAEs [2] | Chest pain, number of subjects [2] | Dizziness, number of TEAEs [2] | Dizziness, number of subjects [2] | Nausea, number of TEAEs [2] | Nausea, number of subjects [2] | Back pain, number of TEAEs [3] | Back pain, number of subjects [3] | Chest pain, number of TEAEs [3] | Chest pain, number of subjects [3] | Abdominal pain, number of TEAEs [5] | Abdominal pain, number of subjects [5] | Back pain, number of TEAEs [5] | Back pain, number of subjects [5] | Chest pain, number of TEAEs [5] | Chest pain, number of subjects [5] | Diarrhea, number of TEAEs [5] | Diarrhea, number of subjects [5] | Flatulence, number of TEAEs [5] | Flatulence, number of subjects [5] | Nausea, number of TEAEs [5] | Nausea, number of subjects [5] | Neck pain, number of TEAEs [5] | Neck pain, number of subjects [5] | Back pain, number of TEAEs [6] | Back pain, number of subjects [6] | Abdominal pain, number of TEAEs [7] | Abdominal pain, number of subjects [7] | Back pain, number of TEAEs [7] | Back pain, number of subjects [7] | Presyncope, number of TEAEs [7] | Presyncope, number of subjects [7] | Abdominal pain, number of TEAEs [8] | Abdominal pain, number of subjects [8] | Diarrhea, number of TEAEs [8] | Diarrhea, number of subjects [8] | Nausea, number of TEAEs [8] | Nausea, number of subjects [8] | Abdominal pain, number of TEAEs [9] | Abdominal pain, number of subjects [9] | Back pain, number of TEAEs [9] | Back pain, number of subjects [9] | Diarrhea, number of TEAEs [9] | Diarrhea, number of subjects [9] | Injection site pain, number of TEAEs [9] | Injection site pain, number of subjects [9] | Contusion, number of TEAEs [10] | Contusion, number of subjects [10] | Diarrhea, number of TEAEs [10] | Diarrhea, number of subjects [10] | Neck pain, number of TEAEs [10] | Neck pain, number of subjects [10] | Back pain, number of TEAEs (single 30 mg solution, fasted) | Back pain, number of subjects (single 30 mg solution, fasted) | Back pain, number of TEAEs (single 50 mg solution, fasted) | Back pain, number of subjects (single 50 mg solution, fasted) | Fatigue, number of TEAEs (single 50 mg solution, fasted) | Fatigue, number of subjects (single 50 mg solution, fasted) | Injection site pain, number of TEAEs (single 50 mg solution, fasted) | Injection site pain, number of subjects (single 50 mg solution, fasted) | Nausea, number of TEAEs (single 50 mg solution, fasted) | Nausea, number of subjects (single 50 mg solution, fasted) | Fatigue, number of TEAEs (single 100 mg solution, fasted) | Fatigue, number of subjects (single 100 mg solution, fasted) | Headache, number of TEAEs (single 400 mg solution, fasted) | Headache, number of subjects (single 400 mg solution, fasted) | Injection site pain, number of TEAEs (single 400 mg solution, fasted) | Injection site pain, number of subjects (single 400 mg solution, fasted) | Presyncope, number of TEAEs (single 400 mg solution, fasted) | Presyncope, number of subjects (single 400 mg solution, fasted) | Nausea, number of TEAEs (single 800 mg capsule, fasted) | Nausea, number of subjects (single 800 mg capsule, fasted) | Vomiting, number of TEAEs (single 800 mg capsule, fasted) | Vomiting, number of subjects (single 800 mg capsule, fasted) | Headache, number of TEAEs (single 1200 mg capsule, fed) | Headache, number of subjects (single 1200 mg capsule, fed)
8: Headache, number of TEAEs [2] | Subjects with AEs, number [3] | Subjects with AEs, number [8]
30 ^‡: Number of AEs [8]
16.7%: Subjects with AEs, percentage of total subjects (single 800 mg capsule, fasted) | Subjects with AEs, percentage of total subjects (single 1200 mg capsule, fed)
3: Headache, number of subjects [1] | Headache, number of subjects [3] | Number of AEs [4] | Subjects with AEs, number [4] | Headache, number of subjects [7] | Contusion, number of TEAEs [9] | Nausea, number of subjects [9] | Headache, number of TEAEs (single 50 mg solution, fasted) | Subjects with AEs, number (single 100 mg solution, fasted)
four subjects: subjects with clinically significant changes in clinical laboratory parameters (increases in serum potassium, erythrocytes, leukocytes)
4 [4]: Headache, number of TEAEs [6] | Headache, number of subjects [6] | Injection site pain, number of TEAEs [6] | Injection site pain, number of subjects [6]
1: Pain in extremity, number of subjects [6] | Dizziness, number of subjects [9] | Chest pain, number of subjects [10] | Vomiting, number of subjects (single 50 mg solution, fasted) | Subjects with AEs, number (single 800 mg capsule, fasted) | Subjects with AEs, number (single 1200 mg capsule, fed)
no clinically significant findings: vital signs, 12-lead ECGs, telemetry, physical examinations (whole study)
2: Pain in extremity, number of TEAEs [6] | Contusion, number of subjects [9] | Dizziness, number of TEAEs [9] | Headache, number of subjects [9] | Chest pain, number of TEAEs [10] | Number of AEs (single 30 mg solution, fasted) | Subjects with AEs, number (single 30 mg solution, fasted) | Headache, number of subjects (single 50 mg solution, fasted) | Vomiting, number of TEAEs (single 50 mg solution, fasted) | Number of AEs (single 800 mg capsule, fasted) | Number of AEs (single 1200 mg capsule, fed) | Number of AEs (single 1800 mg tablet, fasted) | Subjects with AEs, number (single 1800 mg tablet, fasted)
83.3%: Subjects with AEs, percentage of total subjects (single 50 mg solution, fasted)
37.5%: Subjects with AEs, percentage of total subjects (single 100 mg solution, fasted)
100%: Subjects with AEs, percentage of total subjects [10]
87.5%: Subjects with AEs, percentage of total subjects [1] | Subjects with AEs, percentage of total subjects [2]
47: subjects reporting drug-related TEAEs (after multiple doses, of 102 subjects (PQ912 or placebo))
4: Headache, number of subjects [2] | Headache, number of TEAEs [3] | Headache, number of TEAEs [7] | Back pain, number of subjects [8] | Headache, number of TEAEs [9] | Nausea, number of TEAEs [9] | Subjects with AEs, number (single 400 mg solution, fasted)
no serious adverse events: serious adverse events (whole study)
113: drug-related TEAEs, events (after multiple doses, 102 subjects (PQ912 or placebo))
32: Number of AEs [9]
11: Number of AEs [5] | Number of AEs (single 50 mg solution, fasted)
33.3%: Subjects with AEs, percentage of total subjects (single 30 mg solution, fasted) | Subjects with AEs, percentage of total subjects (single 400 mg solution, fasted) | Subjects with AEs, percentage of total subjects (single 1800 mg tablet, fasted)

— publication PMC5975062 (Alzheimer's & Dementia : Translational Research & Clinical …, 2015)
